Test results: patent publication US9428519B2, “Acylated derivative of homoharringtonine, preparation method therefor, and application thereof” (HANGZHOU BENSHENG PHARMACEUTICAL CO., LTD., priority 2011, dated 2016)
In brackets after ≈: the same amount, converted by molar mass.

Experiments:
[1] = tested on: H9 (acute lymphoblastic leukemia, ALL); experiment: MTT growth inhibition of leukemia cells, 72 h; type: cell-based, human; details: MTT
Text: (§1) Leukemia cell lines: leukemia cell lines: K562/adr (drug-resistant, chronic myeloid leukemia, CML), NB4 (acute promyelocytic leukemia, AML), Kasumi-1 (acute myeloid leukemia M2 type, AML-M2), Jurkat (acute lymphoblastic leukemia, ALL), all of which are donated by Cancer Research Institute of Zhejiang University, China; and H9 (acute lymphoblastic leukemia, ALL), which is purchased from China Center for Type Culture Collection (CCTCC).
(§2) Reagents: The standard sample of homoharringtonine (HHT) is purchased from Taihua Natural Plant Pharmaceutical Co., Ltd., Shaanxi, China, the homoharringtonine derivatives of the present invention.
(§3) Obtaining 6000 well-growing leukemia cells and inoculating them into wells of a 96-well cell culture plate. The culture medium is the 1640 cell culture medium containing 10% fetal bovine serum. After adding the homoharringtonine derivatives of different concentrations and mixing uniformly, placing the plate in a carbon dioxide cell incubator (5% CO2) at 37° C. and incubated for 72 hours. Then the viable cell concentration is determined by the MTT method. In this experiment, the cell viability in control group (not treated with any compound) is set as 100%. On such basis, the cell viability (%) after treatment and the 50% inhibiting concentration of the compound for the leukemia cell growth at 72 hours (IC50 value of 72 hours) are calculated.

[2] = tested on: Jurkat (acute lymphoblastic leukemia, ALL); experiment: MTT growth inhibition of leukemia cells, 72 h; type: cell-based, human
Text: as §1, §2, §3

[3] = tested on: K562/adr (drug-resistant, chronic myeloid leukemia, CML); experiment: MTT growth inhibition of leukemia cells, 72 h; type: cell-based, human; details: MTT
Text: as §1, §2, §3

[4] = tested on: Kasumi-1 (acute myeloid leukemia M2 type, AML-M2); experiment: MTT growth inhibition of leukemia cells, 72 h; type: cell-based, human
Text: as §1, §2, §3

[5] = tested on: NB4 (acute promyelocytic leukemia, AML); experiment: MTT growth inhibition of leukemia cells, 72 h; type: cell-based, human; details: MTT
Text: as §1, §2, §3

[6] = tested on: RPMI8226 (multiple myeloma); experiment: MTT growth inhibition of multiple myeloma cells, 72 h; type: cell-based, human
Procedure: Multiple myeloma and lymphoma cell lines: RPMI8226 (multiple myeloma), purchased from Fuxiang Bio-tech Co. Ltd., Shanghai, China.
as §3

A549 (human lung cancer) = experiment: MTT growth inhibition of human solid tumor cells, 72 h; type: cell-based
Procedure: (§4) Human solid tumor cell lines: Hep-2 (laryngeal carcinoma), A549 (human lung cancer), CaES-17 (esophageal cancer cell), PC-3 (prostate cancer), CNE (nasopharyngeal carcinoma cell), and SK-OV-3 (ovarian cancer cell), all of which are purchased from China Center For Type Culture Collection; RKO (human colon adenocarcinoma cell), MGC 803 (human gastric cancer cell), MG63 (osteosarcoma) and U87 MG (malignant glioma cell), all of which are purchased from Fuxiang Bio-tech Co. Ltd., Shanghai, China; PANC-1 (pancreatic cancer), Huh7 (human liver cancer cell), Becap37 (human breast cancer cell), and Hela (human cervical cancer cell), all of which are donated by Cancer Research Institute of Zhejiang University, China.
(§5) Obtaining 4000 well-growing human solid tumor cells and inoculating them into wells of a 96-well cell culture plate. The culture medium is DMEM High Glucose cell culture medium containing 10% fetal bovine serum. The plate is placed in a carbon dioxide cell incubator (5% CO2) at 37° C. and incubated for 24 hours. After adding the homoharringtonine derivatives of different concentration and mixing uniformly, the plate is placed in a carbon dioxide cell incubator (5% CO2) at 37° C. and incubated for 72 hours. Then the viable cell concentration is determined by the MTT method and the cell viability (%) after drug treatment is calculated. In this experiment, the cell viability of control group (not treated with any compound) is set as 100%.

[7] = tested on: Becap37 (human breast cancer cell); experiment: as above; type: cell-based
Procedure: as §4, §5

[8] = tested on: CNE (nasopharyngeal carcinoma cell); experiment: as above; type: cell-based
Procedure: as §4, §5

[9] = tested on: CaES-17 (esophageal cancer cell); experiment: as above; type: cell-based
Procedure: as §4, §5

[10] = tested on: Hela (human cervical cancer cell); experiment: as above; type: cell-based
Procedure: as §4, §5

[11] = tested on: Hep-2 (laryngeal carcinoma); experiment: as above; type: cell-based
Procedure: as §4, §5

[12] = tested on: Huh7 (human liver cancer cell); experiment: as above; type: cell-based
Procedure: as §4, §5

MG63 (osteosarcoma) = experiment: as above; type: cell-based
Procedure: as §4, §5

[13] = tested on: MGC 803 (human gastric cancer cell); experiment: as above; type: cell-based
Procedure: as §4, §5

[14] = tested on: PANC-1 (pancreatic cancer); experiment: as above; type: cell-based
Procedure: as §4, §5

PC-3 (prostate cancer) = experiment: as above; type: cell-based; details: MTT
Procedure: as §4, §5

[15] = tested on: RKO (human colon adenocarcinoma cell); experiment: as above; type: cell-based
Procedure: as §4, §5

[16] = tested on: SK-OV-3 (ovarian cancer cell); experiment: as above; type: cell-based
Procedure: as §4, §5

[17] = tested on: U87 MG (malignant glioma cell); experiment: as above; type: cell-based
Procedure: as §4, §5

COC(=O)C[C@@](CCCC(C)(C)OC(=O)c1ccccc1)(OC(=O)c1ccccc1)C(=O)O[C@@H]1C(OC)=C[C@]23CCCN2CCc2cc4c(cc2[C@H]13)OCO4 [BS-HH-0732]
IC50 H9 [1]: 1.3 µg/mL (≈ 1.72 µM)
IC90 H9 [1]: 3.9 µg/mL (≈ 5.17 µM)
IC50 Jurkat [2]: 1.4 µg/mL (≈ 1.86 µM)
IC90 Jurkat [2]: 6.4 µg/mL (≈ 8.49 µM)
IC50 K562/adr [3]: 2.5 µg/mL (≈ 3.32 µM)
IC90 K562/adr [3]: 6.5 µg/mL (≈ 8.62 µM)
IC50 Kasumi-1 ([4]; MTT): 1.35 µg/mL (≈ 1.79 µM)
IC90 Kasumi-1 ([4]; MTT): 3.56 µg/mL (≈ 4.72 µM)
IC50 NB4 [5]: 1.19 µg/mL (≈ 1.58 µM)
IC90 NB4 [5]: 2.47 µg/mL (≈ 3.28 µM)
IC50 RPMI8226 ([6]; MTT): 1.15 µg/mL (≈ 1.53 µM)
IC90 RPMI8226 ([6]; MTT): 3.84 µg/mL (≈ 5.09 µM)
IC50 A549 (A549 (human lung cancer)): 5.4 µg/mL (≈ 7.16 µM)
IC90 A549 (A549 (human lung cancer)): >16 µg/mL
IC50 Becap37 [7]: 2.9 µg/mL (≈ 3.85 µM)
IC90 Becap37 [7]: 12.7 µg/mL (≈ 16.8 µM)
IC50 CNE ([8]; MTT): 3.91 µg/mL (≈ 5.19 µM)
IC90 CNE ([8]; MTT): >16 µg/mL
IC50 CaES-17 [9]: 3.93 µg/mL (≈ 5.21 µM)
IC90 CaES-17 [9]: 16 µg/mL (≈ 21.2 µM)
IC50 Hela ([10]; MTT): 2.61 µg/mL (≈ 3.46 µM)
IC90 Hela ([10]; MTT): 8.37 µg/mL (≈ 11.1 µM)
IC50 Hep-2 [11]: 3.46 µg/mL (≈ 4.59 µM)
IC90 Hep-2 [11]: >16 µg/mL
IC50 Huh7 [12]: 4.8 µg/mL (≈ 6.37 µM)
IC90 Huh7 [12]: 14.5 µg/mL (≈ 19.2 µM)
IC50 MG 63 (MG63 (osteosarcoma); MTT): 1.34 µg/mL (≈ 1.78 µM)
IC90 MG 63 (MG63 (osteosarcoma); MTT): 9.88 µg/mL (≈ 13.1 µM)
IC50 MGC 803 [13]: 2.7 µg/mL (≈ 3.58 µM)
IC90 MGC 803 [13]: 9.92 µg/mL (≈ 13.2 µM)
IC50 PANC-1 ([14]; MTT): 5.8 µg/mL (≈ 7.69 µM)
IC90 PANC-1 ([14]; MTT): 16 µg/mL (≈ 21.2 µM)
IC50 PC-3 (PC-3 (prostate cancer)): 3.97 µg/mL (≈ 5.27 µM)
IC90 PC-3 (PC-3 (prostate cancer)): 16 µg/mL (≈ 21.2 µM)
IC50 RKO ([15]; MTT): 1.4 µg/mL (≈ 1.86 µM)
IC90 RKO ([15]; MTT): 5.24 µg/mL (≈ 6.95 µM)
IC50 SK-OV-3 ([16]; MTT): 6.71 µg/mL (≈ 8.9 µM)
IC90 SK-OV-3 ([16]; MTT): >16 µg/mL
IC50 U87 MG [17]: 2 µg/mL (≈ 2.65 µM)
IC90 U87 MG [17]: 8.54 µg/mL (≈ 11.3 µM)

COC(=O)C[C@](O)(CCCC(C)(C)OC(=O)c1scnc1C)C(=O)O[C@@H]1C(OC)=C[C@]23CCCN2CCc2cc4c(cc2[C@H]13)OCO4 [BS-HH-0721]
IC50 ([1]; Homo sapiens): 0.003 µg/mL (≈ 0.00447 µM)
IC90 ([1]; Homo sapiens): 0.009 µg/mL (≈ 0.0134 µM)
IC50 ([2]; Homo sapiens, Jurkat): 0.002 µg/mL (≈ 0.00298 µM)
IC90 ([2]; Homo sapiens, Jurkat): ≥ 16 µg/mL
IC50 ([3]; Homo sapiens, K562/Adr): 0.01 µg/mL (≈ 0.0149 µM)
IC90 ([3]; Homo sapiens, K562/Adr): 0.05 µg/mL (≈ 0.0745 µM)
IC50 ([4]; Homo sapiens, Kasumi 1, MTT): 0.002 µg/mL (≈ 0.00298 µM)
IC90 ([4]; Homo sapiens, Kasumi 1, MTT): 0.004 µg/mL (≈ 0.00596 µM)
IC50 ([5]; Homo sapiens): 0.003 µg/mL (≈ 0.00447 µM)
IC90 ([5]; Homo sapiens): 0.005 µg/mL (≈ 0.00745 µM)
IC50 ([6]; Homo sapiens, RPMI-8226, MTT): 0.002 µg/mL (≈ 0.00298 µM)
IC90 ([6]; Homo sapiens, RPMI-8226, MTT): 0.014 µg/mL (≈ 0.0209 µM)
IC50 (A549 (human lung cancer); Homo sapiens, A549): 0.01 µg/mL (≈ 0.0149 µM)
IC90 (A549 (human lung cancer); Homo sapiens, A549): > 16 µg/mL
IC50 ([7]; Homo sapiens): 0.003 µg/mL (≈ 0.00447 µM)
IC90 ([7]; Homo sapiens): 8.17 µg/mL (≈ 12.2 µM)
IC50 ([8]; Homo sapiens, MTT): 0.0037 µg/mL (≈ 0.00552 µM)
IC90 ([8]; Homo sapiens, MTT): > 16 µg/mL
anti-CNE effect relative to homoharringtonine ([8]; vs HHT): more than 10 fold
IC50 ([9]; Homo sapiens, CaEs17): 0.014 µg/mL (≈ 0.0209 µM)
IC90 ([9]; Homo sapiens, CaEs17): 16 µg/mL (≈ 23.9 µM)
IC50 ([10]; Homo sapiens, HeLa, MTT): 0.005 µg/mL (≈ 0.00745 µM)
IC90 ([10]; Homo sapiens, HeLa, MTT): 16 µg/mL (≈ 23.9 µM)
anti-Hela effect relative to homoharringtonine ([10]; vs HHT): > 4.0 fold
IC50 ([11]; Homo sapiens, HEp-2): 0.004 µg/mL (≈ 0.00596 µM)
IC90 ([11]; Homo sapiens, HEp-2): > 16 µg/mL
IC50 ([12]; Homo sapiens, Huh-7): 0.0022 µg/mL (≈ 0.00328 µM)
IC90 ([12]; Homo sapiens, Huh-7): 0.038 µg/mL (≈ 0.0567 µM)
IC50 (MG63 (osteosarcoma); Homo sapiens, MG-63, MTT): 0.006 µg/mL (≈ 0.00894 µM)
IC90 (MG63 (osteosarcoma); Homo sapiens, MG-63, MTT): 0.44 µg/mL (≈ 0.656 µM)
anti-MG63 effect relative to homoharringtonine (MG63 (osteosarcoma); vs HHT): substantially superior
IC50 ([13]; Homo sapiens, MGC-803): 0.006 µg/mL (≈ 0.00894 µM)
IC90 ([13]; Homo sapiens, MGC-803): 0.019 µg/mL (≈ 0.0283 µM)
IC50 ([14]; Homo sapiens, PANC-1, MTT): 0.009 µg/mL (≈ 0.0134 µM)
IC90 ([14]; Homo sapiens, PANC-1, MTT): > 16 µg/mL
anti-PANC-1 effect relative to homoharringtonine ([14]; vs HHT): > 4 fold
IC50 (PC-3 (prostate cancer); Homo sapiens): 0.04 µg/mL (≈ 0.0596 µM)
IC90 (PC-3 (prostate cancer); Homo sapiens): > 16 µg/mL
IC50 ([15]; Homo sapiens, MTT): 0.0009 µg/mL (≈ 0.00134 µM)
IC90 ([15]; Homo sapiens, MTT): 0.005 µg/mL (≈ 0.00745 µM)
anti-RKO effect relative to homoharringtonine ([15]; vs HHT): substantially superior
IC50 ([16]; Homo sapiens, SK-OV-3, MTT): 0.022 µg/mL (≈ 0.0328 µM)
IC90 ([16]; Homo sapiens, SK-OV-3, MTT): > 16 µg/mL
IC50 ([17]; Homo sapiens, U-87 MG): 0.008 µg/mL (≈ 0.0119 µM)
IC90 ([17]; Homo sapiens, U-87 MG): 0.07 µg/mL (≈ 0.104 µM)
